Experimental data published in ChEMBL document CHEMBL1201862, “PubChem BioAssay data set” (2004).
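In this assay, cells in 96-well plates receive the compound at five concentrations for 48 hours. Endpoints are linearly interpolated between the surrounding concentrations. Here, GI50 denotes the concentration required for 50% inhibition of growth.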 Active and inactive are the calls of the source. Rule as the data show it: active = GI50 up to about 1.1 µM and inactive = higher.

Columns and labels:
Experiment in all cases: NCI anticancer screen, dose series, 48 h
[1] = system: OVCAR-4
[2] = system: OVCAR-8
[3] = system: HCT-116
[4] = system: U-251
[5] = system: HOP-92
[6] = system: A498
[7] = system: A549
[8] = system: K562
[9] = system: SNB-75
[10] = system: MDA-MB-435
[11] = system: NCI-H460
[12] = system: LOX IMVI
[13] = system: IGROV-1
[14] = system: SN12C
[15] = system: SF-295
[16] = system: OVCAR-3
[17] = system: OVCAR-5
[18] = system: SK-OV-3
[19] = system: M14
[20] = system: HL-60

SMILES	GI50 [1]	GI50 [2]	GI50 [3]	GI50 [4]	GI50 [5]	GI50 [6]	GI50 [7]	GI50 [8]	GI50 [9]	GI50 [10]	GI50 [11]	GI50 [12]	GI50 [13]	GI50 [14]	GI50 [15]	GI50 [16]	GI50 [17]	GI50 [18]	GI50 [19]	GI50 [20]
CN(C)CCN1C(=O)N(CCN(C)C)c2c3cc(O)ccc3nc3c([N+](=O)[O-])ccc1c23	9.66 µM (inactive)	5.55 µM (inactive)	5.58 µM (inactive)	9.93 µM (inactive)	15.3 µM (inactive)	15.7 µM (inactive)	9.12 µM (inactive)	4.57 µM (inactive)	19.1 µM (inactive)	14.8 µM (inactive)	3.63 µM (inactive)	10.7 µM (inactive)	2.81 µM (inactive)	9.2 µM (inactive)	–	–	–	–	–	–
CCCCCCCCCCCCOCC1(COCCCCCCCCCCCC)COC(c2ccc(N)cc2)OC1	> 100 µM (inactive)	> 100 µM (inactive)	> 100 µM (inactive)	> 100 µM (inactive)	–	> 100 µM (inactive)	> 100 µM (inactive)	> 100 µM (inactive)	> 100 µM (inactive)	> 100 µM (inactive)	> 10 µM (inactive)	> 100 µM (inactive)	> 100 µM (inactive)	> 100 µM (inactive)	> 100 µM (inactive)	> 100 µM (inactive)	> 100 µM (inactive)	> 100 µM (inactive)	> 100 µM (inactive)	–
C[n+]1c2ccccc2c2/c(=C\C#N)c3ccccc3n21	2.79 µM (inactive)	3.52 µM (inactive)	3.03 µM (inactive)	2.73 µM (inactive)	–	20 µM (inactive)	6.92 µM (inactive)	5.42 µM (inactive)	3.23 µM (inactive)	5.43 µM (inactive)	4.35 µM (inactive)	3.48 µM (inactive)	3 µM (inactive)	3.42 µM (inactive)	5.82 µM (inactive)	3.44 µM (inactive)	5.78 µM (inactive)	3.88 µM (inactive)	4.15 µM (inactive)	3.85 µM (inactive)
CC1(O)CC(C(F)(F)F)(C(F)(F)F)OC1=O (configuration not stated)	> 10 µM (inactive)	> 10 µM (inactive)	> 10 µM (inactive)	> 10 µM (inactive)	> 10 µM (inactive)	> 10 µM (inactive)	> 10 µM (inactive)	> 10 µM (inactive)	–	> 10 µM (inactive)	> 10 µM (inactive)	> 10 µM (inactive)	> 10 µM (inactive)	> 10 µM (inactive)	> 10 µM (inactive)	> 10 µM (inactive)	> 10 µM (inactive)	> 10 µM (inactive)	> 10 µM (inactive)	–
Clc1ccc(-c2ccc(-c3nnc(COc4ccc(OCc5nnc(-c6ccc(-c7ccc(Cl)cc7Cl)o6)o5)c(Cl)c4)o3)o2)c(Cl)c1	> 100 µM (inactive)	45.7 µM (inactive)	> 100 µM (inactive)	40 µM (inactive)	–	> 100 µM (inactive)	> 100 µM (inactive)	> 100 µM (inactive)	–	> 100 µM (inactive)	> 100 µM (inactive)	> 100 µM (inactive)	> 100 µM (inactive)	> 100 µM (inactive)	> 100 µM (inactive)	> 100 µM (inactive)	> 100 µM (inactive)	–	> 100 µM (inactive)	> 100 µM (inactive)
CC1C2Cc3ccc(O)cc3C1(C)CCN2C (configuration not stated)	> 100 µM (inactive)	> 100 µM (inactive)	> 100 µM (inactive)	> 100 µM (inactive)	–	> 100 µM (inactive)	> 100 µM (inactive)	> 100 µM (inactive)	86.7 µM (inactive)	> 100 µM (inactive)	> 100 µM (inactive)	> 100 µM (inactive)	> 100 µM (inactive)	> 100 µM (inactive)	> 100 µM (inactive)	> 100 µM (inactive)	> 100 µM (inactive)	> 100 µM (inactive)	> 100 µM (inactive)	> 100 µM (inactive)
CC/C(=C\c1ccc(Cl)c(Cl)c1)[N+](=O)[O-]	3 µM (inactive)	1.68 µM (inactive)	3.66 µM (inactive)	1.86 µM (inactive)	–	8.18 µM (inactive)	2.1 µM (inactive)	2.13 µM (inactive)	3.84 µM (inactive)	1.71 µM (inactive)	2.42 µM (inactive)	0.405 µM (active)	1.64 µM (inactive)	2.09 µM (inactive)	2.04 µM (inactive)	–	2.06 µM (inactive)	–	1.45 µM (inactive)	1.18 µM (inactive)
COC(=O)NN=C(c1ccc(Cl)cc1)c1ccc(Cl)cc1	40.3 µM (inactive)	> 100 µM (inactive)	> 100 µM (inactive)	> 100 µM (inactive)	–	17.9 µM (inactive)	71.1 µM (inactive)	> 100 µM (inactive)	87.9 µM (inactive)	> 100 µM (inactive)	> 100 µM (inactive)	> 100 µM (inactive)	22.9 µM (inactive)	> 100 µM (inactive)	–	> 100 µM (inactive)	> 100 µM (inactive)	> 100 µM (inactive)	> 100 µM (inactive)	> 100 µM (inactive)
Oc1ccc(-c2c3ccccc3c(-c3ccc(OCCBr)cc3)c3ccccc23)cc1	24.2 µM (inactive)	22 µM (inactive)	37.2 µM (inactive)	32.3 µM (inactive)	–	23.2 µM (inactive)	28.4 µM (inactive)	42.1 µM (inactive)	25.1 µM (inactive)	21.7 µM (inactive)	52.6 µM (inactive)	16.9 µM (inactive)	22 µM (inactive)	22.1 µM (inactive)	16 µM (inactive)	14.6 µM (inactive)	27.1 µM (inactive)	52.7 µM (inactive)	21 µM (inactive)	47.5 µM (inactive)
COC(=O)C(CC(C)C)NC(=O)C(NC(=O)c1ccc(-c2ccc(Cl)cc2Cl)o1)C(C)C (configuration not stated)	24.9 µM (inactive)	28.2 µM (inactive)	12.3 µM (inactive)	17.9 µM (inactive)	14.2 µM (inactive)	–	21 µM (inactive)	16 µM (inactive)	23.9 µM (inactive)	22.1 µM (inactive)	14.9 µM (inactive)	15.7 µM (inactive)	18.7 µM (inactive)	18 µM (inactive)	16.2 µM (inactive)	16.3 µM (inactive)	22.2 µM (inactive)	30.8 µM (inactive)	24 µM (inactive)	6.56 µM (inactive)
CCCCCC(C)SC1(C(=O)OC)CC(OC(C)=O)C(NC(C)=O)C([C@H](OC(C)=O)[C@@H](COC(C)=O)OC(C)=O)O1 (some centres not stated)	–	83.2 µM (inactive)	43.9 µM (inactive)	> 100 µM (inactive)	44.4 µM (inactive)	67.1 µM (inactive)	21.2 µM (inactive)	92.9 µM (inactive)	> 100 µM (inactive)	70.1 µM (inactive)	78.7 µM (inactive)	–	> 100 µM (inactive)	> 100 µM (inactive)	> 100 µM (inactive)	90.4 µM (inactive)	> 100 µM (inactive)	–	71 µM (inactive)	42.5 µM (inactive)
C#CCCCCC#Cc1ccccc1C(=O)C=[N+]=[N-]	> 100 µM (inactive)	> 100 µM (inactive)	> 100 µM (inactive)	> 100 µM (inactive)	> 100 µM (inactive)	> 100 µM (inactive)	> 100 µM (inactive)	39.8 µM (inactive)	95.1 µM (inactive)	> 100 µM (inactive)	> 100 µM (inactive)	–	> 100 µM (inactive)	> 100 µM (inactive)	> 100 µM (inactive)	–	> 100 µM (inactive)	> 100 µM (inactive)	> 100 µM (inactive)	–
CC(=O)N[C@@H](Cc1ccc(O)cn1)C(=O)NCc1cccc(F)c1	> 100 µM (inactive)	–	> 100 µM (inactive)	> 100 µM (inactive)	30.9 µM (inactive)	> 100 µM (inactive)	> 100 µM (inactive)	> 100 µM (inactive)	–	> 100 µM (inactive)	> 100 µM (inactive)	> 100 µM (inactive)	> 100 µM (inactive)	> 100 µM (inactive)	> 100 µM (inactive)	> 100 µM (inactive)	> 100 µM (inactive)	> 100 µM (inactive)	> 100 µM (inactive)	> 100 µM (inactive)
COc1ccc(OC)c(NCC(=O)Nn2cnc3ccc(S(=O)(=O)Nc4cc(OC)ccc4OC)cc3c2=O)c1	> 100 µM (inactive)	> 100 µM (inactive)	32.6 µM (inactive)	> 100 µM (inactive)	> 100 µM (inactive)	–	90.8 µM (inactive)	44.3 µM (inactive)	> 100 µM (inactive)	29.5 µM (inactive)	86.3 µM (inactive)	41.1 µM (inactive)	> 100 µM (inactive)	> 100 µM (inactive)	70.3 µM (inactive)	> 100 µM (inactive)	> 100 µM (inactive)	> 100 µM (inactive)	> 100 µM (inactive)	16.2 µM (inactive)
c1ccc(C2=NN=C3C(c4ccccc4)=Nc4ccccc4N3C2)cc1	4.58 µM (inactive)	10 µM (inactive)	10.8 µM (inactive)	14.3 µM (inactive)	29.3 µM (inactive)	> 80.2 µM (inactive)	30.6 µM (inactive)	13.9 µM (inactive)	–	17.7 µM (inactive)	5.07 µM (inactive)	10 µM (inactive)	26.5 µM (inactive)	29.9 µM (inactive)	–	3.37 µM (inactive)	32.2 µM (inactive)	53.1 µM (inactive)	13.7 µM (inactive)	3.56 µM (inactive)
